Results: PMC7416039 (Pharmacology Research & Perspectives, 2020)

Key:
[1] = Metabolism of secnidazole in human liver microsomes; format: in vitro ADME; settings: human, human liver microsomes, pH 7.4
human liver microsomes = assay: as above; format: in vitro ADME
CYP2C9 [2] = target: T1, CYP2C9 (Homo sapiens, UniProt P11712); assay: Time-dependent inhibition of CYP isoforms in HLM
CYP2D6 [3] = target: T2, CYP2D6 (Homo sapiens, UniProt P10635); assay: Time-dependent inhibition of CYP isoforms in HLM
CYP2B6 = target: T3, CYP2B6 (Homo sapiens, UniProt P20813); assay: Direct inhibition of CYP isoforms in HLM
T3 sequence (P20813 1-491): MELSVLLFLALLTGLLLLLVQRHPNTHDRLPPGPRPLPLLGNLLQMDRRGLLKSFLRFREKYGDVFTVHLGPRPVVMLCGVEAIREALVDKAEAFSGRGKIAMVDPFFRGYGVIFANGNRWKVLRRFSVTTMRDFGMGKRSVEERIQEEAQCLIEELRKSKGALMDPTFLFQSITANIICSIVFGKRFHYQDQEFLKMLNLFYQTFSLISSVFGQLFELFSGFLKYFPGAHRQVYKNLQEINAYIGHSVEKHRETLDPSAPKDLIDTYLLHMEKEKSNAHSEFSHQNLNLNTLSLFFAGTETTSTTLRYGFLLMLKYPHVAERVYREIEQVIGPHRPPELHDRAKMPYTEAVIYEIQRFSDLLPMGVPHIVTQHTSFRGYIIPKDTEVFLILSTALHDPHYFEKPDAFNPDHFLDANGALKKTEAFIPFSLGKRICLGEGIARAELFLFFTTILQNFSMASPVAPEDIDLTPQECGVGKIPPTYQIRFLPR

CYP2C8 [4] = target: T4, CYP2C8 (Homo sapiens, UniProt P10632); assay: Direct inhibition of CYP isoforms in HLM
T4 sequence (P10632 1-490): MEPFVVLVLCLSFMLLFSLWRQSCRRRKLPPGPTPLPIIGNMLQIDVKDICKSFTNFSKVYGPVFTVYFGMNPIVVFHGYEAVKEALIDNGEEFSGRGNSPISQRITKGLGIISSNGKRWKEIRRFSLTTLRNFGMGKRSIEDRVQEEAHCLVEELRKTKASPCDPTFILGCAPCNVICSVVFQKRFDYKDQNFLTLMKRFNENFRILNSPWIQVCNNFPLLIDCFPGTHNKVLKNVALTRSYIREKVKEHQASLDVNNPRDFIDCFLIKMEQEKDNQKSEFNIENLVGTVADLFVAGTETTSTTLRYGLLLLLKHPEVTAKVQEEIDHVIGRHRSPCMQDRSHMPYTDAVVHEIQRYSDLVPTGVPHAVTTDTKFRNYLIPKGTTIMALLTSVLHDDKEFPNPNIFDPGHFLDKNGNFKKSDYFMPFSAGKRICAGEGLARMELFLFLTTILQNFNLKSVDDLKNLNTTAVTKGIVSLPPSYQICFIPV

CYP2E1 [5] = target: T5, CYP2E1 (Homo sapiens, UniProt P05181); assay: Direct inhibition of CYP isoforms in HLM
CYP2C9 [6] = target: T1, CYP2C9; assay: Direct inhibition of CYP isoforms in HLM
CYP2C8 [7] = target: T4, CYP2C8; assay: Time-dependent inhibition of CYP isoforms in HLM
[8] = Metabolism of secnidazole in human plasma in vitro; format: in vitro ADME
[9] = target: T6, human aldehyde dehydrogenase 2 (ALDH2) (Homo sapiens, UniProt P05091); assay: Reversible inhibition of ALDH2; format: biochemical
T6 sequence (P05091 18-517): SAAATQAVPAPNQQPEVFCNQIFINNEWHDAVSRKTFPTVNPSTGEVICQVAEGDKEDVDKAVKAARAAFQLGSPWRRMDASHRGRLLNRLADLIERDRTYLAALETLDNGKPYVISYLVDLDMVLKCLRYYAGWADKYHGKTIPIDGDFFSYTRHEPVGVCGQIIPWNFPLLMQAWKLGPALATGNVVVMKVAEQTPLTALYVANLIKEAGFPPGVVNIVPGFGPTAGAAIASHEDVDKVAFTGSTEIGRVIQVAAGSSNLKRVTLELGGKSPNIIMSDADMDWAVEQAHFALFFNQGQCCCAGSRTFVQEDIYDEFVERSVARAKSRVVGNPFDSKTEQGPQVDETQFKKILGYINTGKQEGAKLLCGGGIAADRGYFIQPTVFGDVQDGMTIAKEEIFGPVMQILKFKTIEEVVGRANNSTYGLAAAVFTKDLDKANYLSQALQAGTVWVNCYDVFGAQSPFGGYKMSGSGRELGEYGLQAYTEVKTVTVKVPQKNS

CYP2C19 = CYP2C19 (Homo sapiens, UniProt P33261); assay: Direct inhibition of CYP isoforms in HLM
[10] = test system: cDNA‐expressed human CYP enzymes (Supersomes); assay: Metabolism of 1 μmol/L secnidazole by cDNA-expressed human CYP enzymes; format: in vitro ADME; settings: 0-30 min
[11] = cited from earlier work
CYP2E1 [12] = target: T5, CYP2E1; assay: Time-dependent inhibition of CYP isoforms in HLM
CYP2D6 [13] = target: T2, CYP2D6; assay: Direct inhibition of CYP isoforms in HLM

T2 sequence (P10635 whole entry, canonical isoform): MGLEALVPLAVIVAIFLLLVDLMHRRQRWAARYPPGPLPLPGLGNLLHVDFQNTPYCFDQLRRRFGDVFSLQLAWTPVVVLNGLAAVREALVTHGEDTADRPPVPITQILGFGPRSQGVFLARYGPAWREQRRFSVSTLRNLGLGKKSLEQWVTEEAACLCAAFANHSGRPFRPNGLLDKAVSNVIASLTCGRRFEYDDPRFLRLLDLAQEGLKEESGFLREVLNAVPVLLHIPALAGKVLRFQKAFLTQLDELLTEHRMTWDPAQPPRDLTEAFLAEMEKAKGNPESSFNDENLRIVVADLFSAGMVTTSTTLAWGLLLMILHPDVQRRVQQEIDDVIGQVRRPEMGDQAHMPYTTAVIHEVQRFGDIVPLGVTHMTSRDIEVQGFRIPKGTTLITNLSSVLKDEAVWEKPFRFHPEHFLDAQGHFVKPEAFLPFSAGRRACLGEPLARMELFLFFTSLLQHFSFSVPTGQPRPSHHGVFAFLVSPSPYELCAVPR
T1 sequence (P11712 whole entry, canonical isoform): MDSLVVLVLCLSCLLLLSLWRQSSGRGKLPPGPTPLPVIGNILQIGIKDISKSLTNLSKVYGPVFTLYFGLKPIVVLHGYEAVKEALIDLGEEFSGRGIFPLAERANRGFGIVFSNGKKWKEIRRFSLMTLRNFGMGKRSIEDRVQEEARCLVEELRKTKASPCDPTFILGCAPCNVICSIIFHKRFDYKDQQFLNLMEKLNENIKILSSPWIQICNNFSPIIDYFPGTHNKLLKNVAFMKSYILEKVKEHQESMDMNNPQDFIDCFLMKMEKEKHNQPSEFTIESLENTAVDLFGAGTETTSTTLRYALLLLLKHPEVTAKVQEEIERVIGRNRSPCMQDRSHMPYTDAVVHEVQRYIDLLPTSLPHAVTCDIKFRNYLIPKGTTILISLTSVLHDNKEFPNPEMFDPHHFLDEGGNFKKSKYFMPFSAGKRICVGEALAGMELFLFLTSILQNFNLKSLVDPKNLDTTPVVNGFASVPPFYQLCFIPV
T5 sequence (P05181 whole entry, canonical isoform): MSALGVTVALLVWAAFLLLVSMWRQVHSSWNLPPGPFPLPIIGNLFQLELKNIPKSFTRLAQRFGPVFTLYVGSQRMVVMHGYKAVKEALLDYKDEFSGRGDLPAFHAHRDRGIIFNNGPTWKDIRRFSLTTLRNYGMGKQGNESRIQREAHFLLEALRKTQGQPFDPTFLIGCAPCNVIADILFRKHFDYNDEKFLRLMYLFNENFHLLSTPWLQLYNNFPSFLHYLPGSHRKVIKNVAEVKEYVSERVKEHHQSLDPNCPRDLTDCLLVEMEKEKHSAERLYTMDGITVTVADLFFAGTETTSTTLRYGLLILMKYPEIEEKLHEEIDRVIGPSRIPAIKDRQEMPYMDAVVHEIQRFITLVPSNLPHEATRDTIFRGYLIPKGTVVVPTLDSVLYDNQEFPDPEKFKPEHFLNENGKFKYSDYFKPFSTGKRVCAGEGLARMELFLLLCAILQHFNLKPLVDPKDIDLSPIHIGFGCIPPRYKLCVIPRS
CYP2C19, sequence (P33261 whole entry, canonical isoform): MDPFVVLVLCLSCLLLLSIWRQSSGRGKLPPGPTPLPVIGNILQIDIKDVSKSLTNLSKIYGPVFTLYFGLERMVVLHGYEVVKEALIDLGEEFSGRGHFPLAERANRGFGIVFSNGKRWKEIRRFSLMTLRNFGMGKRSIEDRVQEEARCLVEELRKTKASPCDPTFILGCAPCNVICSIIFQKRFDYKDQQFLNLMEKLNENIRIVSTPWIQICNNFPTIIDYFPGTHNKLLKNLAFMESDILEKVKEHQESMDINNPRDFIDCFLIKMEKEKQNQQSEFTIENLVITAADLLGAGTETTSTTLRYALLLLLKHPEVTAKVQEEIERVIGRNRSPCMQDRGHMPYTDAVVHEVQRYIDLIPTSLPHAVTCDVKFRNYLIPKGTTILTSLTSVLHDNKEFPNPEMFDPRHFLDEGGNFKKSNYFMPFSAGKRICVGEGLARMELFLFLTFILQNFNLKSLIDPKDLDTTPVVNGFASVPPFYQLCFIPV

Cc1ncc([N+](=O)[O-])n1CC(C)O (stereo not shown) [secnidazole]
Km [1]: > 6.4 mM
metabolism in HLMs (in words) (human liver microsomes; concentrations up to 6400 µmol/L): very low metabolism
Km (human liver microsomes; read-out: Km for M2 formation, rate linear with substrate concentration): > 6.4 mM
IC50 (CYP2C9 [2]): > 0.5 mM
IC50 (CYP2D6 [3]): > 0.5 mM
IC50 (CYP2B6): > 5 mM
direct inhibition (in words) (CYP2B6; HLM, CYP2B6): some clear concentration‐dependent inhibition at higher concentration
IC50 (CYP2C8 [4]): > 5 mM
IC50 (CYP2E1 [5]): > 5 mM
IC50 (CYP2C9 [6]): > 5 mM
IC50 (CYP2C8 [7]): > 0.5 mM
metabolism in human plasma in vitro [8]: no evidence of secnidazole metabolism
IC50 [9]: 0.503 mM
% Remaining ([9]; secnidazole 0.2 μmol/L): 94%
NADH ([9]; secnidazole 0.2 μmol/L): 117 nmol/min/mg
% Remaining ([9]; secnidazole 0.5 μmol/L): 90%
NADH ([9]; secnidazole 0.5 μmol/L): 112 nmol/min/mg
% Remaining ([9]; secnidazole 1.4 μmol/L): 90%
NADH ([9]; secnidazole 1.4 μmol/L): 112 nmol/min/mg
% Remaining ([9]; secnidazole 4.1 μmol/L): 100%
NADH ([9]; secnidazole 4.1 μmol/L): 125 nmol/min/mg
% Remaining ([9]; secnidazole 12.3 μmol/L): 110%
NADH ([9]; secnidazole 12.3 μmol/L): 137 nmol/min/mg
% Remaining ([9]; secnidazole 37 μmol/L): 96%
NADH ([9]; secnidazole 37 μmol/L): 120 nmol/min/mg
% Remaining ([9]; secnidazole 111.1 μmol/L): 79%
NADH ([9]; secnidazole 111.1 μmol/L): 99 nmol/min/mg
% Remaining ([9]; secnidazole 333.3 μmol/L): 63%
NADH ([9]; secnidazole 333.3 μmol/L): 79 nmol/min/mg
% Remaining ([9]; secnidazole 1000 μmol/L): 32%
NADH ([9]; secnidazole 1000 μmol/L): 39 nmol/min/mg
IC50 (CYP2C19): 3.87 mM
metabolism in cDNA‐expressed enzymes [10]: did not demonstrate conclusive evidence of any metabolism
cumulative urinary excretion of free and conjugated secnidazole [11]: approximately 50%
IC50 (CYP2E1 [12]): > 0.5 mM
IC50 (CYP2D6 [13]): > 5 mM
direct inhibition (in words) (CYP2D6 [13]; HLM, CYP2D6): some clear concentration‐dependent inhibition at higher concentration
